Test results published in US20080045499A1, “Preferential Inhibition of Presenilin-1” (Elan Pharmaceuticals, Inc., priority 2006, published 2008).
Read-outs that look alike come from different tables or passages of the source.

Key:
[1] = target: T1, Presenilin-1-comprised γ-secretase (Homo sapiens, UniProt P49768); experiment: Aβ1-x ELISA in Presenilin-1 transfected PS1/PS2 double knockout mouse fibroblasts; format: cell-based; settings: Aβ1-x, Presenilin-1 transfected cells, overnight
T1 construct: expressed in transfected cells; host or cells: mouse fibroblasts derived from PS1/PS2 double knockout cells, pCF vector
Excerpt: (§1) A131-x represents any Aβ peptides longer than Aβ1-23, including Aβ38, Aβ40, and Aβ42, since Aβ1-x is defined operationally by an ELISA assay using proprietary antibody mAb 266 for capture and proprietary antibody mAb 3D6 for detection. The epitope for mAb266 is Aβ16-23, and the epitope for mAb 3D6 is Aβ1-5. […] Aβ40 ELISA employed antibodies mAb 266 as capture and 2G3 (specific for Ab40) as detection, respectively. Furthermore, Aβ42 ELISA employed antibodies mAb 266 as capture and 21F12 as detection, respectively. Hybridomas producing antibodies against Aβ16-23 were generated by standard murine fusion procedures as detailed in Kohler and Milstein (Nature 256:495 1975) and U.S. Pat. No. 4,666,829 which are hereby incorporated by reference in their entireties. See also “Detailed Description” herein. Briefly, two BALB/c mice immunized with Aβ13-28 conjugated to 2C-11 (a T-cell receptor monoclonal antibody) were sacrificed and the spleens removed. Mixed splenocytes were obtained by pressing the spleens through a 30 mesh stainless steel screen. These were fused with P3X63Ag8 murine myeloma cells (aminopterin sensitive) at a fusion ratio of 10:1 in 35% polyethylene-glycol. These cells were plated out in 96 well tissue culture plates in the presence of 2×10^6 thymocytes/ml. Hybridomas were selected for by growing the cells in the presence of aminopterin poisoned Dulbecco's modified Eagle's media augmented with hypoxanthine, thymine and 10% fetal bovine serum. Hybridomas were screened for reactivity against Aβ13-28 and AAP protein via ELISA. Positive clones were sub-cloned twice. Aliquots of the clones were frozen and stored in liquid nitrogen. Supernatants from positive clones were produced in large quantities for further purification of monoclonal antibodies.
(§2) For ELISA assays, each well of 96-well ELISA plates was coated with 100 μl of 10 μg/ml 266 in Well Coating Buffer (pH 8.5) at 4 degrees overnight, and blocked with 0.25% human BSA solution at 25 degrees for 120 minutes. The plate can be used directly without wash, after removing blocking solution.
(§3) ELISA assays were performed at room temperature. Fifty μl of conditioned medium from overnight culture of transfected cells, with or without gamma secretase inhibitors, were added to each well of ELISA plates, and incubated for 1 hour. After washing plates with Tris-buffered saline (TBS) plus 0.05% Tween-20, 50 μl biotinylated 3D6 antibody at 0.5 μg/ml was added to each well and incubate for 45 minutes. […] Next, plates were washed with Tris-buffered saline (TBS) plus 0.05% Tween-20, and 50 μl substrate (1-step slow TMB-Elisa, Pierce, Woburn, Mass., USA, catalogue number: 34024) was added to each well and incubated for 15 min. Finally, substrate reactions were terminate by adding to each well 15 ul 2 NH2SO4, and OD readings were obtained on SpectraMax Plus (Molecular Devices, Sunnyvale, Calif., USA). The Aβ concentration of samples was then obtained by comparing sample OD readings to those of standards.
(§4) EC50 values were derived by curve fitting of Aβ1-x levels, for samples treated with various concentrations of gamma secretase inhibitors, with XLfit software program (IDBS, Alameda, Calif., USA). Differences in EC50 values obtained for Presenilin-1 transfected cells and Presenilin-2 transfected cells exposed to a test compound served as an indicator of differential inhibition.
(§5) Transfected mouse fibroblasts derived from the PS1/PS2 double knockout cells are grown at 37 degree under 10% CO2 in Dulbecco's modified Eagle's medium (DMEM) containing 2-10% fetal bovine serum (FBS) and 100 μg/ml penicillin/streptomycin (Pen/Strp) (Invitrogen Corporation, Carlsbad, Calif., USA).
(§6) Cell culture medium is then removed from the transfected cell lines and analyzed for Aβ1-x levels by ELISA assay, as described in Example 1. ELISA assays are performed using ELISA plates coated with the mAb 266 to capture Aβ peptides and then by detecting Aβ peptides with biotinylated mAb 3D6.

[2] = target: T2, Presenilin-2-comprised γ-secretase (Homo sapiens, UniProt P49810); experiment: Aβ1-x ELISA in Presenilin-2 transfected PS1/PS2 double knockout mouse fibroblasts; format: cell-based; settings: Aβ1-x, Presenilin-2 transfected cells, overnight
T2 construct: expressed in transfected cells; host or cells: mouse fibroblasts derived from PS1/PS2 double knockout cells, pCF vector
Excerpt: as §1, §2, §3, §4, §5, §6

293sw = 293sw IC50 of gamma-secretase inhibitors; format: cell-based
[3] = test system: Presenilin-1-comprised γ-secretase relative to Presenilin-2-comprised γ-secretase; experiment: PS1/PS2 selectivity: ratio of EC50 in Presenilin-2 and Presenilin-1 transfected cells; format: cell-based, human; settings: for PS2/PS1 EC50 ratio: EC50 of Presenilin-2 transfected cells over Presenilin-1 transfected cells
Excerpt: as §4
as §6, with “3D6. EC50 values are derived for all of the test compounds. Differences in EC50 values obtained for Presenilin-1 transfected cells and Presenilin-2 transfected cells exposed to a test compound serve as an indicator of differential inhibition.” for “3D6.”
For example, several tested compounds are sulfonamide compounds, while several are non-sulfonamide compounds. The ratio of the EC50 value obtained for Presenilin-2 transfected cells and Presenilin-1 transfected cells (indicated in the last column of Table I) indicates the degree to which the test compound is capable of preferentially inhibiting Presenilin-1. […] In Table 2, the values shown in columns A, B and C are EC50 values (nM). Where inhibition was very low, EC50 values were not generated by the program; thus EC50 values are not provided. Rather, percent of inhibition was estimated based on the inhibition curve generated by the program. Percentages indicate percentage inhibition at a compound concentration of 10 uM. […]

PS2/1C = experiment: Inhibition of chimeric presenilin PS2/1C; format: cell-based, human; settings: chimeric PS1/PS2 molecule, FIG. 11
Excerpt: Human PS1, PS2, and APPsw cDNA inserts were subcloned into pCF vector, which was modified with pcDNA3 (Invitrogen, CA, USA) by inserting the adenoviral tripartite leader sequence (Berkner et al, (1987) J. Virol. April; 61(4): 1213-20. Abundant expression of polyomavirus middle T antigen and dihydrofolate reductase in an adenovirus recombinant) 38 bp upstream of the starting ATG codon, between the CMV promoter and the EcoR1 site. Construction of presenilin chimeras was PCR-based. For making chimeras that contain PS1backbone and a PS2 fragment, we first generated a large PCR fragment that contained the entire pCF vector plus all PS1 sequence to be retained, and a small PCR fragment that only contained the PS2 fragment to be used in the final chimera. The two PCR fragments were then ligated in a blunt-end fashion by Rapid DNA ligation kit (Roche, Ind., USA). We used pfu Turbo DNA polymerase kit (Strategene, Calif., USA) for all PCR reactions. To avoid potential mutations introduced by PCR, we first sequenced the entire insert in both strands. […] For making chimeras that contained PS2 backbone and a PS1 fragment, we first generated a large PCR fragment that contained the entire pCF vector plus all PS2 sequence to be retained, and a small PCR fragment that only contained the PS1 fragment to be used in the final chimera. All other cloning procedures were the same as described above. […]

[4] = column A, read-out: PS1 EC50 (nM) A
[5] = column B, read-out: PS1 EC50 (nM) B
[6] = column C, read-out: PS1 EC50 (nM) C
[7] = column A, read-out: PS2 EC50* (nM) A
[8] = column B, read-out: PS2 EC50* (nM) B
[9] = column C, read-out: PS2 EC50* (nM) C

Row | Molecule | EC50 [1, 4] | EC50 [1, 5] | EC50 [1, 6] | EC50 [2, 7] | EC50 [2, 8] | IC50 (293sw) | PS2/PS1 EC50 ratio [3] | EC50 [2, 9] | inhibitor potencies against PS2/1C compared with PS1 (PS2/1C) | fold more selective for PS1 ([3]; mean values from 2 independent experiments (FIG. 11))
1 | O=C1NCCCC[C@H]1N(Cc1ccc(Br)cc1)S(=O)(=O)c1ccc(Cl)cc1 | 106 nM | 259 nM | 159 nM | 1920 nM | 3410 nM | 0.243 µM | 15 |  |  | 
2 | O=C1NCCCC[C@H]1N(Cc1ccc(Br)cc1)S(=O)(=O)c1ccc(Cl)nc1 | 92 nM | 189 nM | 87 nM | 1570 nM | 2290 nM | 0.118 µM | 31 |  |  | 
3 | Cn1nnc2cc(CN([C@@H]3CCCCNC3=O)S(=O)(=O)c3ccc(Cl)cc3)ccc21 | 40 nM | 75 nM | 42 nM | 589 nM | 924 nM | 0.051 µM | 15 |  |  | 
4 | Cn1nnc2cc(CN([C@@H]3CCCCNC3=O)S(=O)(=O)c3ccc(Cl)nc3)ccc21 | 84 nM | 53 nM | 114 nM | 1980 nM | 1840 nM | 0.238 µM | 23 |  |  | 
5 | CCS(=O)(=O)CC[C@@H](C)N(c1cc(Cl)ccc1Cl)S(=O)(=O)c1ccc(Cl)cc1 | 153 nM | 868 nM | 598 nM | 5000 nM | 5700 nM | 0.182 µM | 10 |  |  | 
6 | C[C@H](NC(=O)[C@@H](O)c1cc(F)cc(F)c1)C(=O)Nc1cc(C(C)(C)c2ccccc2)n[nH]1 | 8.2 nM | 8.3 nM | 19 nM | 26 nM | 23 nM | 0.001 µM | 2 |  |  | 
7 | C[C@H](NC(=O)[C@@H](O)c1cc(F)cc(F)c1)C(=O)N[C@H](C(=O)NCC1CN(c2ccccc2)CCO1)c1ccccc1 (some centres unmarked) | 10 nM | 37 nM | 17.5 nM | 45 nM | 44 nM | 0.041 µM | 2 |  |  | 
8 | COc1ccc(CN([C@@H]2CCCCNC2=O)S(=O)(=O)c2ccc(Cl)cc2)cc1OC | 91 nM | 89 nM | 109 nM | 1290 nM | 1980 nM | 0.126 µM | 27 | 4540 nM |  | 
9 | Cn1nnc2cc(CN([C@@H]3CCCCNC3=O)S(=O)(=O)c3ccc(Cl)s3)ccc21 | 122 nM | 87 nM | 102 nM | 6410 nM | 5310 nM | 0.775 µM | 47 | 3000 nM |  | 
10 | O=C1NCCCC[C@H]1N(Cc1ccc(-c2ncon2)cc1)S(=O)(=O)c1ccc(Cl)cc1 | 20 nM | 5.9 nM | 26 nM | 175 nM | 156 nM | 0.016 µM | 12 | 263 nM |  | 
11 | O=C1NCCCC[C@H]1N(Cc1ccc(-c2nccs2)cc1)S(=O)(=O)c1ccc(Cl)cc1 | 30 nM | 50 nM | 74 nM | 585 nM | 412 nM | 0.077 µM | 10 | 553 nM |  | 
12 | BMS299897 [reference compound] |  |  |  |  |  |  |  |  | behaved just like PS1 | ~35 fold
